This passage reports EC50 results from patent US8329725B2, “Annelated pyrrolidin sulfonamides with oxadiazolone headgroup, processes for their preparation and their use as pharmaceuticals” (Sanofi, priority 2008, dated 2012).

Test [1] addresses T1, human PPARdelta (Homo sapiens, UniProt Q03181).
T1 construct: human PPARdelta receptor (amino acids S139-Y441); expressed in transfected cells
T1 sequence (Q03181 139-441): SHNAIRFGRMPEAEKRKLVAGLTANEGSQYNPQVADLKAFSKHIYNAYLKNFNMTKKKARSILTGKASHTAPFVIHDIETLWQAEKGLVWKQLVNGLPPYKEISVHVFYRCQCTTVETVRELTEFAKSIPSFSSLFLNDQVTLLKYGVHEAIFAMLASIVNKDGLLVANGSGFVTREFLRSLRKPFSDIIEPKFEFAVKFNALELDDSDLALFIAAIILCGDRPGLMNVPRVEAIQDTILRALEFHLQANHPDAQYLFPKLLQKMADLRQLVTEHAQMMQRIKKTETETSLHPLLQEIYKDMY
Briefly: Cellular PPARdelta assay (luciferase reporter, stably transfected HEK cell line). In kind it is cell-based. To be noted: PPARdelta reporter cell line (HEK, GR-GAL4-humanPPARdelta-LBD). The protocol: Determination of EC50 Values of PPAR Agonists in the Cellular PPARdelta Assay
The potency of substances which bind to human PPARdelta and activate it in an agonistic manner is analyzed using a stably transfected HEK cell line (HEK=human embryo kidney) which is referred to here as PPARdelta reporter cell line. In analogy to the assay described for PPARalpha, the PPARdelta reporter cell line also contains two genetic elements, a luciferase reporter element (pdeltaM-GAL4-Luc-Zeo) and a PPARdelta fusion protein (GR-GAL4-humanPPARdelta-LBD) which mediates expression of the luciferase reporter element depending on a PPARdelta ligand. The stably and constitutively expressed fusion protein GR-GAL4-humanPPARdelta-LBD binds in the cell nucleus of the PPARdelta reporter cell line via the GAL4 protein portion to the GAL4 DNA binding motifs 5′-upstream of the luciferase reporter element which is stably integrated in the genome of the cell line. There is only little expression of the luciferase reporter gene in the absence of a PPARdelta ligand if fatty acid-depleted fetal calf serum (cs-FCS) is used in the assay. PPARdelta ligands bind and activate the PPARdelta fusion protein and thereby stimulate expression of the luciferase reporter gene. The luciferase which is formed can be detected by means of chemiluminescence via an appropriate substrate.
The production of the stable PPARdelta reporter cell line is based on a stable HEK-cell clone which was stably transfected with a luciferase reporter element. This step was already described above in the section “construction of the PPARalpha reporter cell line”. In a second step, the PPARdelta fusion protein (GR-GAL4-humanPPARdelta-LBD was stably introduced into this cell clone. For this purpose, the cDNA coding for the N-terminal 76 amino acids of the glucocorticoid receptor (Accession #P04150) was linked to the cDNA section coding for amino acids 1-147 of the yeast transcription factor GAL4 (Accession #P04386). The cDNA of the ligand-binding domain of the human PPARdelta receptor (amino acids S139-Y441; Accession #L07592) was cloned in at the 3′-end of this GR-GAL4 construct. The fusion construct prepared in this way (GR-GAL4-humanPPARdelta-LBD) was recloned into the plasmid pcDNA3 (Invitrogen) in order to enable constitutive expression by the cytomegalovirus promoter. This plasmid was linearized with a restriction endonuclease and stably transfected into the previously described cell clone containing the luciferase reporter element. […]
The activity of PPARdelta agonists is determined in a 3-day assay in exact analogy to the procedure already described for the PPARalpha reporter cell line except that the PPARdelta reporter cell line and a specific PPARdelta agonist was used as a standard to control test efficacy.
(In general: Reporter assays use an easily measured gene product as a stand-in for the process of interest.)

In test [2] the target is T2, human PPARalpha (Homo sapiens, UniProt Q07869).
T2 construct: human PPARalpha receptor (amino acids S167-Y468); expressed in transfected cells
T2 sequence (Q07869 167-468): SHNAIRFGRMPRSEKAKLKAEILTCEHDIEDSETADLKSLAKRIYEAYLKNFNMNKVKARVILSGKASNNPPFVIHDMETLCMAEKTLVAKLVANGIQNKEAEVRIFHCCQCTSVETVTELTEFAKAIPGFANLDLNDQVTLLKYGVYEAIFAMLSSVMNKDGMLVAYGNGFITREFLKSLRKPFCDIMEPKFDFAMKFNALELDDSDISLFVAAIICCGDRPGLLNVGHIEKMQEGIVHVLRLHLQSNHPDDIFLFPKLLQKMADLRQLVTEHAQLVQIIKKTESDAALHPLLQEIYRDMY
Briefly: Cellular PPARalpha assay (luciferase reporter, stably transfected HEK cell line). As to conditions: PPARalpha reporter cell line (HEK, GR-GAL4-humanPPARalpha-LBD). In kind it is cell-based. As to the method: Determination of EC50 Values of PPAR Agonists in the Cellular PPARalpha Assay
The potency of substances which bind to human PPARalpha and activate it in an agonistic manner is analyzed using a stably transfected HEK cell line (HEK=human embryo kidney) which is referred to here as PPARalpha reporter cell line. It contains two genetic elements, a luciferase reporter element (pdeltaM-GAL4-Luc-Zeo) and a PPARalpha fusion protein (GR-GAL4-humanPPARalpha-LBD) which mediates expression of the luciferase reporter element depending on a PPARalpha ligand. The stably and constitutively expressed fusion protein GR-GAL4-humanPPARalpha-LBD binds in the cell nucleus of the PPARalpha reporter cell line via the GAL4 protein portion to the GAL4 DNA binding motifs 5′-upstream of the luciferase reporter element which is stably integrated in the genome of the cell line. There is only weak expression of the luciferase reporter gene in the absence of a PPARalpha ligand if fatty acid-depleted fetal calf serum (cs-FCS) is used in the assay. PPARalpha ligands bind and activate the PPARalpha fusion protein and thereby stimulate the expression of the luciferase reporter gene. The luciferase which is formed can be detected by means of chemiluminescence via an appropriate substrate. […]
The activity of PPARalpha agonists is determined in a 3-day assay which is described below: […]

pEC50: −log10 of the molar value.

For the compound `COc1ccc(-c2ccc3c(c2)CCN3S(=O)(=O)c2ccc(-c3noc(=O)[nH]3)cc2)nc1` [Example 8, 3-{4-[5-(5-Methoxy-pyridin-2-yl)-2,3-dihydro-indole-1-sulfonyl]-phenyl}-4H-[1,2,4]oxadiazol-5-one], the pEC50 in test [1] is 5.89.

`COc1nc(C)ccc1-c1ccc2c(c1)CCN2S(=O)(=O)c1ccc(-c2noc(=O)[nH]2)cc1` [Example 5, 3-{4-[5-(2-Methoxy-6-methyl-pyridin-3-yl)-2,3-dihydro-indole-1-sulfonyl]-phenyl}-4H-[1,2,4]oxadiazol-5-one] had a pEC50 in test [1] of 5.45. For the compound `CC1(C)CN(S(=O)(=O)c2ccc(-c3noc(=O)[nH]3)c(Cl)c2)c2ccc(-c3ccc(C(F)(F)F)cc3)nc21` [Example 16, 3-{2-Chloro-4-[3,3-dimethyl-5-(4-trifluoromethyl-phenyl)-2,3-dihydro-pyrrolo[3,2-b]pyridine-1-sulfonyl]-phenyl}-4H-[1,2,4]oxadiazol-5-one], the pEC50 in test [1] was 8.60; in test [2] it was 6.10. For `O=c1[nH]c(-c2ccc(S(=O)(=O)N3CCc4cc(-c5ccc(C(F)(F)F)cc5)cnc43)cc2Cl)no1` [Example 14, 3-{2-Chloro-4-[5-(4-trifluoromethyl-phenyl)-2,3-dihydro-pyrrolo[2,3-b]pyridine-1-sulfonyl]-phenyl}-4H-[1,2,4]oxadiazol-5-one], the pEC50 is 7.47 in test [1] and 5.72 in test [2].

The term pEC50 denotes the negative decadic logarithm of the EC50, by convention in mol/L. Low values mean a high EC50, high ones a low EC50.
